Results on 36 compounds are retold here after ChEMBL document CHEMBL3352218, “Structural basis for inhibition of mycobacterial and human adenosine kinase by 7-substituted 7-(Het)aryl-7-deazaadenine ribonucleosides” (J Med Chem, 2014).

≈ marks a conversion by molar mass, not a printed value.

For the assay, the system named is Mycobacterium tuberculosis. Description: Antimycobacterial activity against multidrug resistant Mycobacterium tuberculosis Praha 131 assessed as microbial growth inhibition incubated for 14 days. The class given is functional. As to conditions: Praha 131, 336 h.
As to `Nc1ncnc2c1c(-c1ccccc1)cn2[C@@H]1O[C@H](CO)[C@@H](O)[C@H]1O`, the minimal inhibitory concentration (MIC) (in general, the smallest concentration in the dilution series that meets the test's criterion for growth inhibition) amounted to 8 µM (≈ 2.74 µg/mL).
Under `COc1ccc(-c2cn([C@@H]3O[C@H](CO)[C@@H](O)[C@H]3O)c3ncnc(N)c23)cc1` stands 16 µM (≈ 5.96 µg/mL); under `CSc1ccc(-c2cn([C@@H]3O[C@H](CO)[C@@H](O)[C@H]3O)c3ncnc(N)c23)cc1`, 8 µM (≈ 3.11 µg/mL); under `Nc1ncnc2c1c(-c1cccc3ccccc13)cn2[C@@H]1O[C@H](CO)[C@@H](O)[C@H]1O`, 32 µM (≈ 12.6 µg/mL).
Under `Nc1ncnc2c1c(-c1ccc3ccccc3c1)cn2[C@@H]1O[C@H](CO)[C@@H](O)[C@H]1O` stands 4 µM (≈ 1.57 µg/mL); under `Nc1ncnc2c1c(-c1ccco1)cn2[C@@H]1O[C@H](CO)[C@@H](O)[C@H]1O`, 62.5 µM (≈ 20.8 µg/mL).
Under `Nc1ncnc2c1c(-c1cccs1)cn2[C@@H]1O[C@H](CO)[C@@H](O)[C@H]1O` stands 8 µM (≈ 2.79 µg/mL); under `Nc1ncnc2c1c(-c1ccoc1)cn2[C@@H]1O[C@H](CO)[C@@H](O)[C@H]1O`, 16 µM (≈ 5.32 µg/mL).
Take `Nc1ncnc2c1c(-c1ccsc1)cn2[C@@H]1O[C@H](CO)[C@@H](O)[C@H]1O`: the MIC stood at 8 µM (≈ 2.79 µg/mL).
With `Nc1ncnc2c1c(-c1cc3ccccc3o1)cn2[C@@H]1O[C@H](CO)[C@@H](O)[C@H]1O`, the minimal inhibitory concentration (MIC) is 16 µM (≈ 6.12 µg/mL).
Under `Nc1ncnc2c1c(-c1ccc[nH]1)cn2[C@@H]1O[C@H](CO)[C@@H](O)[C@H]1O` stands 62.5 µM (≈ 20.7 µg/mL); under `Nc1ncnc2c1c(-c1cc[nH]c1)cn2[C@@H]1O[C@H](CO)[C@@H](O)[C@H]1O`, 62.5 µM (≈ 20.7 µg/mL).
Under `Nc1ncnc2c1c(-c1cn[nH]c1)cn2[C@@H]1O[C@H](CO)[C@@H](O)[C@H]1O` stands 125 µM (≈ 41.5 µg/mL); under `Nc1ncnc2c1c(-c1cc[nH]n1)cn2[C@@H]1O[C@H](CO)[C@@H](O)[C@H]1O`, more than 250 µM; under `C#Cc1cn([C@@H]2O[C@H](CO)[C@@H](O)[C@H]2O)c2ncnc(N)c12`, 8 µM (≈ 2.32 µg/mL).
Turning to `Nc1ncnc2c1c(-c1c[nH]nn1)cn2[C@@H]1O[C@H](CO)[C@@H](O)[C@H]1O`, the MIC is more than 250 µM.
Under `Nc1ncnc2c1c(-c1nccs1)cn2[C@@H]1O[C@H](CO)[C@@H](O)[C@H]1O` stands 125 µM (≈ 43.7 µg/mL); under `Nc1ncnc2c1c(-c1c[nH]cn1)cn2[C@@H]1O[C@H](CO)[C@@H](O)[C@H]1O`, more than 250 µM.
For the compound `Nc1ncnc2c1c(-c1ncc[nH]1)cn2[C@@H]1O[C@H](CO)[C@@H](O)[C@H]1O`, the minimum inhibitory concentration (MIC) was more than 250 µM.
Under `Cc1ccc(-c2cn([C@@H]3O[C@H](CO)[C@@H](O)[C@H]3O)c3ncnc(N)c23)cc1C` stands 8 µM (≈ 2.96 µg/mL); under `CC(C)c1cccc(-c2cn([C@@H]3O[C@H](CO)[C@@H](O)[C@H]3O)c3ncnc(N)c23)c1`, 32 µM (≈ 12.3 µg/mL).
Under `CC(C)c1ccc(-c2cn([C@@H]3O[C@H](CO)[C@@H](O)[C@H]3O)c3ncnc(N)c23)cc1` stands 16 µM (≈ 6.15 µg/mL); under `CC(C)(C)c1ccc(-c2cn([C@@H]3O[C@H](CO)[C@@H](O)[C@H]3O)c3ncnc(N)c23)cc1`, 62.5 µM (≈ 24.9 µg/mL); under `Nc1ncnc2c1c(-c1ccc(C(F)(F)F)cc1)cn2[C@@H]1O[C@H](CO)[C@@H](O)[C@H]1O`, 4 µM (≈ 1.64 µg/mL).
Under `CC(C)Oc1ccc(-c2cn([C@@H]3O[C@H](CO)[C@@H](O)[C@H]3O)c3ncnc(N)c23)cc1` stands 32 µM (≈ 12.8 µg/mL); under `Nc1ncnc2c1c(-c1ccc3c(c1)OCO3)cn2[C@@H]1O[C@H](CO)[C@@H](O)[C@H]1O`, 8 µM (≈ 3.09 µg/mL).
Regarding `COc1cc(-c2cn([C@@H]3O[C@H](CO)[C@@H](O)[C@H]3O)c3ncnc(N)c23)cc(OC)c1OC`, the MIC worked out at 8 µM (≈ 3.46 µg/mL).
`Nc1ncnc2c1c(-c1ccc3c4c(cccc14)CC3)cn2[C@@H]1O[C@H](CO)[C@@H](O)[C@H]1O`: the MIC amounted to 16 µM (≈ 6.7 µg/mL).
Under `Nc1ncnc2c1c(-c1cc3ccccc3c3ccccc13)cn2[C@@H]1O[C@H](CO)[C@@H](O)[C@H]1O` stands 32 µM (≈ 14.2 µg/mL); under `Nc1ncnc2c1c(-c1cccc3c1oc1ccccc13)cn2[C@@H]1O[C@H](CO)[C@@H](O)[C@H]1O`, 4 µM (≈ 1.73 µg/mL).
As to `Nc1ncnc2c1c(-c1cccc3c1Oc1ccccc1S3)cn2[C@@H]1O[C@H](CO)[C@@H](O)[C@H]1O`, the minimal inhibitory concentration (MIC) was 16 µM (≈ 7.43 µg/mL).
Consider `Nc1ncnc2c1c(-c1cccc3c1Sc1ccccc1S3)cn2[C@@H]1O[C@H](CO)[C@@H](O)[C@H]1O`, for which the minimal inhibitory concentration (MIC) is 125 µM (≈ 60.1 µg/mL).
Under `Nc1ncnc2c1c(/C=C/c1ccccc1)cn2[C@@H]1O[C@H](CO)[C@@H](O)[C@H]1O` stands 8 µM (≈ 2.95 µg/mL); under `Nc1ncnc2c1c(-c1ccc(-c3ccccc3)cc1)cn2[C@@H]1O[C@H](CO)[C@@H](O)[C@H]1O`, 4 µM (≈ 1.67 µg/mL).
Under `Nc1ncnc2c1c(-c1ccc(-c3ccc4ccccc4c3)cc1)cn2[C@@H]1O[C@H](CO)[C@@H](O)[C@H]1O` stands 62.5 µM (≈ 29.3 µg/mL); under `Nc1ncnc2c1c(-c1ccc(COc3cccc4ccccc34)cc1)cn2[C@@H]1O[C@H](CO)[C@@H](O)[C@H]1O`, 32 µM (≈ 16 µg/mL).
